The subject of one test is SK-MEL-5. Kind of test: Mini cell panel: inhibition of proliferation of SK-MEL-5 cells. The test is classed as cell-based. To be noted: Homo sapiens, MTAP (-/-). The source says:
(§1) Test 9: Mini Cell Panel: Assay for Inhibitory Activity of Compounds against Proliferation of 20 Tumor Cell Lines
(§2) Materials and Cells: Fifteen MTAP(-/-) cell lines and five MTAP wild-type cell lines were purchased from ATCC (USA). Cell culture media, fetal bovine serum (FBS), and penicillin-streptomycin were purchased from Thermo Fisher Scientific (USA). 384-well plates were purchased from PerkinElmer (USA). The CellTiter-Glo assay kit was purchased from Promega (USA). Paclitaxel was used as the control compound.

The test system of the next test is ACHN. Kind of test: Mini cell panel: inhibition of proliferation of ACHN cells. To be noted: MTAP (-/-). In kind it is cell-based.
From the text: as §1, §2

In a further test the test system is 15 MTAP(-/-) cell lines. Kind of test: Mini cell panel: summary over the MTAP(-/-) cell lines. To be noted: for selectivity, calculated based on the median values: MTAP wild-type vs MTAP(-/-) cell lines. In kind it is cell-based.
From the text: as §1, §2

Another test has as its system U87MG. Kind of test: Mini cell panel: inhibition of proliferation of U87MG cells. To be noted: MTAP (-/-). In kind it is cell-based.
From the text: as §1, §2

Another test relates to SW1573. Description: Mini cell panel: inhibition of proliferation of SW1573 cells. The test is classed as cell-based.
From the text: as §1, §2

For a further test, the system named is PSN-1. Kind of test: Mini cell panel: inhibition of proliferation of PSN-1 cells. In kind it is cell-based.
From the text: as §1, §2

Another test relates to DOHH-2. Kind of test: Mini cell panel: inhibition of proliferation of DOHH-2 cells. In kind it is cell-based.
From the text: as §1, §2

Another test relates to NCI-H838 MTAP(-/-) cells. Description: Inhibition of proliferation of NCI-H838 MTAP(-/-) cells (CellTiter-Glo). The settings on record: read-out: IC50(nM) NCI-H838 MTAP(-/-).
A further test has as its system LU99 MTAP(-/-) cells. Description: Inhibition of proliferation of LU99 MTAP(-/-) cells (CellTiter-Glo). The test is classed as cell-based. The settings on record: cell proliferation, 6 days. As for the experimental part: Test 3: Compound's inhibitory activity on proliferation of LU99 MTAP (-/-) cells.
Materials and Cells: The LU99 MTAP(-/-) cell line was purchased from Cobioer Biosciences (China). Cell culture media and fetal bovine serum (FBS) were purchased from Thermo Fisher Scientific (USA). 384-well plates were purchased from PerkinElmer (USA). The CellTiter-Glo assay kit was purchased from Promega (USA).
Cell Culture: LU99 MTAP(-/-) cells were cultured in a medium supplemented with 10% fetal bovine serum (FBS) at 37°C with 5% CO2. Only cells in the logarithmic growth phase were used for experiments.
Cell Proliferation Inhibition Assay: The antiproliferative activity of the compounds against LU99 MTAP(-/-) cells was assessed using the CellTiter-Glo assay kit. Cell suspensions were adjusted to the appropriate density and seeded into 384-well plates at a volume of 40 µL per well, then incubated overnight at 37°C with 5% CO2. Compounds (40 nL) were added to each well to achieve final concentrations ranging from 0 to 1,000 nM (starting concentration 1,000 nM, 2.5-fold serial dilutions, 10 dose points), with a final DMSO concentration of 0.2%. The cell plates were incubated at 37°C with 5% CO2 for 6 days. Subsequently, 40 µL of CellTiter-Glo reagent was added to measure cell viability.

[1] abbreviates: read-out: median IC50, 15 MTAP(-/-) cell lines.
Where [2] appears, read: Homo sapiens, SW1573, MTAP (-/-).
Setting [3] is: Homo sapiens, DOHH-2, MTAP (-/-).

Like-named read-outs stand apart in the source and are kept apart here.

On to `CN(C(=O)c1cc2c(cn1)nc(N)c1cncn12)[C@@H]1COc2cc(C(F)(F)F)ccc21` [Example 4, (S)-4-amino-N-methy 1-N-(6-(trifluoromethy 1)-2,3-dihydrobenzofuran-3-yl)imidazo[1,5-a]pyrido[3,4-e]pyrazine-8-carboxamide], for which the IC50 in the test on SK-MEL-5 is > 1 µM; in the test with ACHN (Homo sapiens, ACHN), 0.0047 µM; in the test on 15 MTAP(-/-) cell lines (setting [1]), 0.0388 µM; in the test with 15 MTAP(-/-) cell lines (span over the cell lines, read-out: IC50 values (range) against the 15 MTAP(-/-) cell lines), ≥ 0.0024 µM; with U87MG (Homo sapiens, U-87 MG) it was 0.148 µM; in the test with SW1573 (setting [2]) it was 0.662 µM. For the same compound, the IC50 in the test with PSN-1 (Homo sapiens, PSN1, MTAP (-/-)) is 0.0126 µM; with DOHH-2 (setting [3]), 0.0193 µM. The “selectivity, calculated based on the median values” (“selectivity, calculated based” below) in the test on 15 MTAP(-/-) cell lines is listed as 44.2 fold.

For `[2H]C([2H])([2H])N(C(=O)c1ccc2nc(N)c3cncn3c2c1)[C@@H]1COc2cc(C(F)(F)F)ccc21` [Example 16, (S)-4-amino-N-(methyl-d3)-N-(6-(trifluoromethyl)-2,3-dihydrobenzofuran-3-yl)imidaz o[1,5-a]quinoxaline-8-carboxamide], the IC50 in the test with NCI-H838 MTAP(-/-) cells (Homo sapiens, NCI-H838, 144 h) was 66.8 nM; with LU99 MTAP(-/-) cells (Homo sapiens, Lu-99, 144 h), 12.9 nM.

For `[2H]C([2H])([2H])N(C(=O)c1cc2c(cc1F)nc(N)c1cncn12)[C@@H]1COc2cc(C(F)(F)F)ccc21` [Example 41, (S)-4-amino-7-fluoro-N-(methyl-d3)-N-(6-(trifluoromethyl)-2,3-di hydrobenzofuran-3-yl)imidazo[1,5-a]quinox aline-8-carboxamide], the IC50 with NCI-H838 MTAP(-/-) cells (Homo sapiens, NCI-H838, 144 h) was 57.6 nM; in the test on LU99 MTAP(-/-) cells (Homo sapiens, Lu-99, 144 h), 9.56 nM.

With “(S)-4-amino-7-fluoro-N-methyl-N-(6-(triflu oromethyl)-2,3-dihydr obenzofuran-3-yl)imi dazo[1,5-a]quinoxalin e-8-carboxamide [Example 29]”, the IC50 came out at 76.8 nM with NCI-H838 MTAP(-/-) cells (cell proliferation, 6 days, CellTiter-Glo); 10.7 nM in the test with LU99 MTAP(-/-) cells; 0.0029 µM with ACHN; 0.0424 µM with 15 MTAP(-/-) cell lines (setting [1]); 1.04 µM with U87MG; 0.0473 µM with SW1573 (MTAP (-/-)). Further, the IC50 with PSN-1 (MTAP (-/-)) came to 0.0241 µM; with DOHH-2 (MTAP (-/-)) it was 0.0116 µM. Further, the “selectivity, calculated based” value with 15 MTAP(-/-) cell lines is given as 77.7 fold.

As to `CN(C(=O)c1ccc2nc(N)c3cncn3c2c1)[C@@H]1COc2cc(C(F)(F)F)ccc21` [Example 107, (S)-4-amino-N-methy 1-N-(6-(trifluoromethy 1)-2,3-dihydrobenzofuran-3-yl)imidazo[1,5-a]quinoxaline-8-carboxamide], the IC50 is 67.8 nM in the test on NCI-H838 MTAP(-/-) cells (Homo sapiens, NCI-H838, 144 h); 13.2 nM in the test with LU99 MTAP(-/-) cells (Homo sapiens, Lu-99, 144 h); > 1 µM in the test on SK-MEL-5; 0.0027 µM with ACHN (Homo sapiens, ACHN); 0.0566 µM with 15 MTAP(-/-) cell lines (setting [1]); 0.327 µM in the test with U87MG (Homo sapiens, U-87 MG). The IC50 in the test on SW1573 (setting [2]) came to 0.0444 µM; in the test with PSN-1 (Homo sapiens, PSN1, MTAP (-/-)), 0.0309 µM; in the test on DOHH-2 (setting [3]) it was 0.0332 µM. In the test with 15 MTAP(-/-) cell lines, the “selectivity, calculated based” value was 58.8 fold.

Values taken from patent EP4775208A1, “USE OF PRMT5 INHIBITOR IN TREATMENT OF TUMORS OR CANCERS” (Apeiron Therapeutics (Hong Kong) Ltd., priority 2023, dated 2025).
